These results are taken from patent US20160272935A1, “Method of improving the yield of algae production” (RELIANCE INDUSTRIES LIMITED, priority 2013, published 2016).

Assay [1] concerns diatoms. Description: Mixed algae/diatom culture with urea cycle pathway inhibitor, cellometer cell count: diatoms. It is filed as cell-based. The settings on record: 1 mM inhibitor. The protocol:
(§1) A control was established containing equal quantities of algae and diatoms. Similarly a test was also established containing the same equal quantities of algae and diatoms along with 1 mM of urea cycle pathway inhibitor namely, Saccharopine.
(§2) At Day 1 using a cellometer technique the cell counts of algae and diatoms in both the control and the test was carried out.
(§3) Both the control and the test were then incubated for 4 days in similar optimum conditions with periodic checking for cell counts in both the control and the test vessels.
(§4) The diatom and the algal cell count was then determined using the cellometer technique at the end of 4th day.

For assay [2], the system named is algae. Description: Mixed algae/diatom culture with urea cycle pathway inhibitor, cellometer cell count: algae. It is filed as cell-based. The conditions noted are these: 1 mM inhibitor. The protocol:
as §1, §2, §3, §4

Another assay concerns diatoms and algae. Description: Similar trials with other urea cycle pathway inhibitors in mixed environment of diatoms and algae. The conditions noted are these: no details given.
The test system of assay [3] is diatoms. Description: Pond (natural habitat) trial with urea cycle pathway inhibitor, cellometer cell count: diatoms. On the set-up: species or system diatom. The conditions noted are these: 25 mM added to pond. The method, then: (§5) Another experiment was carried out in a natural habitat i.e. a pond consisting of a mixed environment of algae and diatoms. At Day 1 using a cellometer technique the cell counts of algae and diatoms was carried out.
(§6) A urea cycle pathway inhibitor, namely Tris 25 mM was added to the pond.
(§7) Periodic cell count readings were carried out for a span of two months. The diatom and the algal cell count were then determined using the cellometer technique at the end of the 2 month span.

In assay [4] the test system is algae. Description: Pond (natural habitat) trial with urea cycle pathway inhibitor, cellometer cell count: algae. The conditions noted are these: 25 mM added to pond, end of 2 month span; day 1 count 1000 cells/meter. The method, then: as §5, §6, §7

Take `N[C@@H](CCCCN[C@@H](CCC(=O)O)C(=O)O)C(=O)O` [Saccharopine]: the “Day 4 (Cell Count) Inhibitor Diatom” value with diatoms [1] (after 4 days incubation, control 842, day 1 count 200) is on record as 62. Also, the “Diatom cell count reduction from day 1” value with diatoms [1] (day 4) is listed as 69%. Further, the “Day 1 (Cell count) Inhibitor Diatom” value in the assay with diatoms [1] (initial count at day 1) is 200. The “Day 4 (Cell Count) Inhibitor Algae” value in the assay on algae [2] (after 4 days incubation, control 119, day 1 count 100) stood at 450. Besides, the “Day 1 (Cell count) Inhibitor Algae” value in the assay on algae [2] (initial count at day 1) was found to be 100. In addition, the “Outcome of similar trials (diatom inhibition and algal growth)” value with diatoms and algae is on record as “equally successful results”.

Take `NC(CO)(CO)CO` [Tris]: in the assay with diatoms [3] (2 months), the “Diatom cell count of the pond reduced, as compared to the cell count of diatoms on Day 1” value is listed as 71%. In addition, in the assay on diatoms [3] (end of 2 month span, day 1 count 2000 cells/meter), the “Cell count at Day 60 Diatom” value is recorded as 580 cells/meter. Also, the “Cell count at Day 60 Algae” value in the assay with algae [4] was found to be 5300 cells/meter. The “Outcome of similar trials (diatom inhibition and algal growth)” value with diatoms and algae is “equally successful results”.

Regarding `N` [ammonia], in the assay with diatoms and algae, the “Outcome of similar trials (diatom inhibition and algal growth)” value is “equally successful results”.

For `O=S(=O)(O)CCN1CCN(CCO)CC1` [hepes], in the assay with diatoms and algae, the “Outcome of similar trials (diatom inhibition and algal growth)” value is on record as “equally successful results”.

Consider `NCCCC[C@H](N)C(=O)O` [lysine], for which the “Outcome of similar trials (diatom inhibition and algal growth)” value with diatoms and algae is listed as “equally successful results”.

On to `CCCCCCCCCCCCCCCC(=O)SCCNC(=O)CCNC(=O)[C@H](O)C(C)(C)COP(=O)(O)OP(=O)(O)OC[C@H]1O[C@@H](n2cnc3c(N)ncnc32)[C@H](O)[C@@H]1OP(=O)(O)O` [palmitoyl CoA], for which the “Outcome of similar trials (diatom inhibition and algal growth)” value with diatoms and algae was “equally successful results”.

In the case of `O=C([O-])c1ccccc1.[Na+]` [sodium benzoate], in the assay on diatoms and algae, the “Outcome of similar trials (diatom inhibition and algal growth)” value was “equally successful results”.
